Here are results for five molecules from US4987067A, “Maltooligosaccharide derivatives and reagents for determination of amylase activity” (Yoshitomi Pharmaceutical Industries, Ltd., priority 1987, dated 1991).

Data set [1] in a line: Dissolution of substrate in the reagents of Example 3. As to conditions: reagents of Example 3 without their substrates, 50 mM Good Buffer pH 7.0; substrate 2 mM in Example 3. Format: physicochemical. The source says: An attempt was made to use the substrates listed below instead of the substrates in Example 3, but the former substrates were not dissolved in the reagents in Example 3 (excluding substrates in Example 3).

The subject of data set [2] is α-Glucosidase, β-Glucosidase, Glucoamylase. In words: Variation in blank value of reagent with time (absorbance at 400 nm), reagent with α-glucosidase, β-glucosidase and glucoamylase. The format is biochemical. The conditions noted are these: Table 2, glucoamylase added (10 U/ml), substrate 2 mM; for Absorbance at 400 nm (blank value), on reaction initiation: pH 7.0, α-glucosidase 80 U/ml, β-glucosidase 10 U/ml; for Absorbance at 400 nm (blank value), after 10 min. / Absorbance at 400 nm (blank value), after 20 min. / Absorbance at 400 nm (blank value), after 30 min.: pH 7.0. How it is done: (§1) With this reagent, variation in absorbance was determined in a similar manner to Example 2. A 3 ml quantity of the reagent was added to […] of sample serum and allowed to stand for 5-6 minutes at 37° C. and thereafter, the variation in absorbance at 400 nm was determined and the change in absorbance per one minute which is an indication of amylase activity was calculated The variation in blank value of the reagent with time and the change in absorbance per minute are shown in Table 2 below.
The reagent of the following composition was prepared:
(§2) Substrate (see Table 2) 2 mM

Data set [3] concerns α-Glucosidase, β-Glucosidase. In words: Variation in blank value of reagent with time (absorbance at 400 nm), reagent with α-glucosidase and β-glucosidase. Format: biochemical. As to conditions: substrate 2 mM. The method, then:
Reagents having the following composition were prepared.
50 mM Good Buffer (pH 7.0)
Substrate (see Table 1) 2 mM
Immediately after the preparation of the reagents, after 10 minutes, 20 minutes and 30 minutes, the absorbance of each reagent at 400 nm was determined (3 ml of reagent sample; 37° C.).
The reagent having the following composition was prepared:
as §2

The subject of another data set is α-amylase. Kind of data set: Change in absorbance per minute at 400 nm with sample serum (indication of amylase activity). The format is biochemical. As to conditions: 3 ml reagent added to sample serum, 5-6 minutes at 37° C. How it is done: as §1
Where [4] appears, read: Table 1, 50 mM Good Buffer pH 7.0, α-glucosidase 80 U/ml, β-glucosidase 10 U/ml, 37° C., immediately after preparation.
[5] abbreviates: Table 1, pH 7.0, α-glucosidase 80 U/ml, β-glucosidase 10 U/ml, 37° C.
[6] abbreviates: Table 2, no glucoamylase, pH 7.0.

Structures are written as SMILES.

Turning to `CC1(C)OC[C@H]2O[C@H](O[C@H]3[C@H](O)[C@@H](O)[C@@H](O[C@H]4[C@H](O)[C@@H](O)[C@@H](O[C@H]5[C@H](O)[C@@H](O)[C@@H](O[C@H]6[C@H](O)[C@@H](O)[C@H](Oc7ccc([N+](=O)[O-])cc7Cl)O[C@@H]6CO)O[C@@H]5CO)O[C@@H]4CO)O[C@@H]3CO)[C@H](O)[C@@H](O)[C@@H]2O1` [Isopropylidene 2-chloro-4-nitrophenyl-β-maltopentaoside], the “Solubility of substrate in the reagents in Example 3” value in data set [1] is recorded as “not dissolved”.
As to `O=[N+]([O-])c1ccc(O[C@@H]2O[C@H](CO)[C@@H](O[C@H]3O[C@H](CO)[C@@H](O[C@H]4O[C@H](CO)[C@@H](O[C@H]5O[C@H](CO)[C@@H](O[C@H]6O[C@H](CO)[C@@H](O)[C@H](O)[C@H]6O)[C@H](O)[C@H]5O)[C@H](O)[C@H]4O)[C@H](O)[C@H]3O)[C@H](O)[C@H]2O)c(Cl)c1` [compound 1, 2-chloro-4-nitrophenyl-β-maltopentaoside, reference compound], in data set [2], the “Absorbance at 400 nm (blank value), on reaction initiation” value (shortened to “Absorbance … on reaction initiation”) was 0.132; the “Absorbance at 400 nm (blank value), after 10 min.” value (shortened to “Absorbance … after 10 min.”) stood at 0.162; the “Absorbance at 400 nm (blank value), after 20 min.” value (from here on “Absorbance … after 20 min.”) was 0.192; the “Absorbance at 400 nm (blank value), after 30 min.” value (“Absorbance … after 30 min.” for short) is recorded as 0.223. Further, in data set [3] (setting [4]), the “Absorbance … on reaction initiation” value stood at 0.251. Further, in data set [3] (setting [5]), the “Absorbance … after 10 min.” value is 0.273; the “Absorbance … after 20 min.” value is 0.293; the “Absorbance … after 30 min.” value stood at 0.323. In the data set with α-amylase (glucoamylase added (10 U/ml)), this molecule yielded a Change in absorbance of 0.136 per minute.
As for `O=[N+]([O-])c1ccc(O[C@@H]2O[C@H](CO)[C@@H](O[C@H]3O[C@H](CO)[C@@H](O[C@H]4O[C@H](CO)[C@@H](O[C@H]5O[C@H](CO)[C@@H](O[C@H]6O[C@@H]7COCO[C@H]7[C@H](O)[C@H]6O)[C@H](O)[C@H]5O)[C@H](O)[C@H]4O)[C@H](O)[C@H]3O)[C@H](O)[C@H]2O)c(Cl)c1` [Methylidene 2-chloro-4-nitrophenyl-β-maltopentaoside], the “Solubility of substrate in the reagents in Example 3” value in data set [1] is given as “not dissolved”.
Still for that read-out and setting: the entry for `O=[N+]([O-])c1ccc(O[C@@H]2O[C@H](CO)[C@@H](O[C@H]3O[C@H](CO)[C@@H](O[C@H]4O[C@H](CO)[C@@H](O[C@H]5O[C@H](CO)[C@@H](O[C@H]6O[C@@H]7COC(c8ccccc8)O[C@H]7[C@H](O)[C@H]6O)[C@H](O)[C@H]5O)[C@H](O)[C@H]4O)[C@H](O)[C@H]3O)[C@H](O)[C@H]2O)c(Cl)c1` (stereo partly drawn) [Benzylidene 2-chloro-4-nitrophenyl-β-maltopentaoside] is “not dissolved”.
Turning to `CC(=O)CC1OC[C@H]2O[C@H](O[C@H]3[C@H](O)[C@@H](O)[C@@H](O[C@H]4[C@H](O)[C@@H](O)[C@@H](O[C@H]5[C@H](O)[C@@H](O)[C@@H](O[C@H]6[C@H](O)[C@@H](O)[C@H](Oc7ccc([N+](=O)[O-])cc7Cl)O[C@@H]6CO)O[C@@H]5CO)O[C@@H]4CO)O[C@@H]3CO)[C@H](O)[C@@H](O)[C@@H]2O1` (stereo partly drawn) [Example 2, 3-ketobutylidene 2-chloro-4-nitrophenyl-β-maltopentaoside], the “Absorbance … on reaction initiation” value came to 0.051 in data set [2]; 0.049 in data set [3] (setting [4]); 0.050 in data set [3] (Table 2, no glucoamylase, pH 7.0, α-glucosidase 80 U/ml, β-glucosidase 10 U/ml). In addition, the “Absorbance … after 10 min.” value is recorded as 0.051 in data set [2], 0.049 in data set [3] (setting [5]) and 0.051 in data set [3] (setting [6]). The “Absorbance … after 20 min.” value in data set [2] worked out at 0.051; in data set [3] (setting [5]), 0.049; in data set [3] (setting [6]), 0.051. For the same molecule, the “Absorbance … after 30 min.” value was 0.052 in data set [2], 0.050 in data set [3] (setting [5]) and 0.051 in data set [3] (setting [6]). In addition, the Change in absorbance is on record as 0.157 per minute in the data set with α-amylase (glucoamylase added (10 U/ml)) and 0.123 per minute in the data set with α-amylase (no glucoamylase).
